Test results from USRE43327E1, “Hydrophobic polyamine analogs and methods for their use” (Aminex Therapeutics, Inc., priority 2001, dated 2012).
“And” between values parts separate entries of the source, which are not always exact repeats. Equal values may be shown once.

What was measured:
Assay type in all cases: cell-based
PC-3 [1] = assay: Growth inhibition assay, PA alone, PC-3; details: PA alone (no DFMO), six days; repeat determinations; read-out: Cell Line IC50 PC-3
Description: (§1) Medias were obtained from Mediatech, Inc. (Herdon, Va.) and serums from Gibco BRL (Gaithersburg, Md.). 50 U/ml penicillin, 50 μg/ml streptomycin and 2 mM L-glutamine (all from Bio Whittaker, Walkersville, Md.) were included in all cultures. […] When cells were cultured with polyamines or ORI compounds, 1 mM aminoguanidine (AG; Sigma) was included to inhibit serum amine oxidase activity.

[2] = system: 4 cell lines (A375, MDA-MB-231, PC-3, SK-OV-3); assay: Growth inhibition with DFMO, average over 4 cell lines; details: for growth inhibition / EC50 with polyamine synthesis inhibitor, comparison in words: compared with lysine-spermine conjugates (ORI 1202, ORI 1426) or PAs lacking a hydrophobic domain; for EC50: Table 3, average over cell lines, with DFMO, read-out: AVG. EC50
Description: Cells were plated in 96-well plates such that they would be in log growth for the duration of the assay. The day after plating, PAs were added to the cells, and growth, if any, permitted to continue for six days in the presence of 1 mM AG and 0.5 μM SPD to insure that any growth inhibition was not the result of depletion of external polyamines in the media. At the end of the six days, cell growth was measured by MTS/PMS dye assay (Cell Titer 96 Aqueous Non-Radioactive Cell Proliferation Assay; Promega, Madison, Wis.).

MDA-MB-231 [3] = assay: Growth inhibition assay, PA alone, MDA-MB-231; details: PA alone (no DFMO), six days; repeat determinations; read-out: Cell Line IC50 MDA-MB-231
Description: as §1

SK-OV-3 [4] = assay: Growth inhibition assay, PA alone, SK-OV-3; details: PA alone (no DFMO), six days; repeat determinations; read-out: Cell Line IC50 SK-OV-3
Description: as §1

PC-3 [5] = assay: Growth inhibition assay (MTS/PMS) with DFMO, PC-3; details: in the presence of DFMO (1-5 mM), 1 mM AG, 0.5 μM SPD, six days; repeat determinations; read-out: Cell Line EC50 PC-3
Description: as §1

A375 [6] = assay: Growth inhibition assay (MTS/PMS) with DFMO, A375; details: in the presence of DFMO (1-5 mM), 1 mM AG, 0.5 μM SPD, six days; repeat determinations; read-out: Cell Line EC50 A375
Description: as §1

SK-OV-3 [7] = assay: Growth inhibition assay (MTS/PMS) with DFMO, SK-OV-3; details: in the presence of DFMO (1-5 mM), 1 mM AG, 0.5 μM SPD, six days; repeat determinations; read-out: Cell Line EC50 SK-OV-3
Description: as §1

MDA-MB-231 [8] = assay: Growth inhibition assay (MTS/PMS) with DFMO, MDA-MB-231; details: in the presence of DFMO (1-5 mM), 1 mM AG, 0.5 μM SPD, six days; repeat determinations; read-out: Cell Line EC50 MDA-MB-231
Description: as §1

A375 [9] = assay: Growth inhibition assay, PA alone, A375; details: PA alone (no DFMO), six days; repeat determinations; read-out: Cell Line IC50 A375
Description: as §1

| SMILES | IC50 (PC-3 [1]) [nM] | growth inhibition / EC50 with polyamine synthesis inhibitor, comparison in words [2] | IC50 (MDA-MB-231 [3]) [nM] | IC50 (SK-OV-3 [4]) [nM] | EC50 (PC-3 [5]) | EC50 (A375 [6]) [nM] | EC50 (SK-OV-3 [7]) | EC50 (MDA-MB-231 [8]) [nM] | IC50 (A375 [9]) [nM] | EC50 [2] [nM] |
| --- | --- | --- | --- | --- | --- | --- | --- | --- | --- | --- |
| CC(=O)NCCCC[C@H](N)C(=O)NCCCNCCCCNCCCN [IA11] | > 30000 | higher EC50 | > 30000 | > 30000 | 2300 nM | > 30000 | > 30000 nM | > 30000 | > 30000 | – |
| NCCCNCCCCNCCCNC(=O)[C@@H](N)CCCCNC(=O)CCCCCCCCC(=O)NCCCC[C@H](N)C(=O)NCCCNCCCCNCCCN [IA19] | > 30000 | no improvement | > 30000 | > 30000 | > 30000 nM | 214 | > 30000 nM | > 30000 | > 30000 | – |
| CC(C)CC(=O)NCCCC[C@@H](N)C(=O)NCCCNCCCCNCCCN [IB35] | > 100000 | – | > 100000 | > 100000 | > 100000 nM | > 100000 | > 100000 nM | > 100000 | > 100000 | > 100000 |
| CCCCCCCCCCCCCCCC(=O)NC(CCCCN)C(=O)NCCCNCCCCNCCCN (stereo not drawn) [ID4] | 18700 | – | 18600 | 18100 | 1330 nM | 440 | 2640 nM | 636 | 17900 | 1260 |
| CCCCCCCC(=O)NC(CCCCN)C(=O)NCCCNCCCCNCCCN (stereo not drawn) [ID7] | > 30000 | – | > 30000 | > 30000 | 7420 nM | 5290 | 17200 nM | 8250 | > 30000 | 9540 |
| CN(C)c1cccc2c(S(=O)(=O)NCCCC[C@H](N)C(=O)NCCCNCCCCNCCCN)cccc12 [IIA20] | > 30000 | – | > 30000 | > 30000 | 463 nM | 405 | 2650 nM | 1610 | > 30000 | 1280 |
| CCS(=O)(=O)N[C@@H](CCCCN)C(=O)NCCCNCCCCNCCCN [IID2] | > 30000 | – | > 30000 | > 30000 | > 30000 nM | > 30000 | > 30000 nM | > 30000 | > 30000 | > 30000 |
| Cc1cc(C)c(S(=O)(=O)NC(CCCCN)C(=O)NCCCNCCCCNCCCN)c(C)c1 (stereo not drawn) [IID17] | > 30000 | – | > 30000 | > 30000 | 4090 nM | 5870 | 23900 nM | 5100 | > 30000 | 9740 |
| CCCCCCCC/C=C\CCCCCCCC(=O)NCCCC[C@H](N)C(=O)NCCCNCCCCNCCCN [IIIA1] | > 30000 | – | > 30000 | > 30000 | 386 nM | 76 | 398 nM | 197 | > 30000 | 264 |
| CCCCCCCC/C=C/CCCCCCCC(=O)NCCCC[C@H](N)C(=O)NCCCNCCCCNCCCN [IIIA2] | > 30000 | – | > 30000 | > 30000 | 22 nM | 10 | 76 nM | 29 | > 30000 | 34 |
| CCCCC/C=C/C/C=C/CCCCCCCC(=O)NCCCC[C@H](N)C(=O)NCCCNCCCCNCCCN [IIIA6] | 25800 | – | > 30000 | > 30000 | 60 nM | 18 | 95 nM | 47 | 22300 | 55 |
| C[C@H](CCC(=O)NCCCC[C@H](N)C(=O)NCCCNCCCCNCCCN)[C@H]1CC[C@H]2[C@@H]3[C@H](O)C[C@@H]4C[C@H](O)CC[C@]4(C)[C@H]3C[C@H](O)[C@]12C [IIIA7] | > 3000 | – | > 3000 | > 3000 | 255 nM | 87 | 2940 nM | 215 | > 3000 | 874 |
| CCCCCCCNCCCC[C@H](N)C(=O)NCCCNCCCCNCCCN [IVA6] | > 100000 | – | > 100000 | > 100000 | 290 nM | 540 | 240 nM | 510 | > 100000 | 395 |
| CCCCCCCCCCCCCCCCNCCCC[C@H](N)C(=O)NCCCNCCCCNCCCN [IVA11] | > 3000 | – | > 3000 | > 3000 | 46 nM | 10 | 81 nM | 19 | > 3000 | 39 |
| CC(C)(C)CCNCCCC[C@H](N)C(=O)NCCCNCCCCNCCCN [IVA22] | > 100000 | – | > 100000 | > 100000 | 711 nM | 739 | 937 nM | 1660 | > 100000 | 1010 |
| NCCCNCCCCNCCCNC(=O)[C@@H](N)CCCCNCC1CC2C=CC1C2 (stereo partly drawn) [IVA25] | > 100000 | – | > 100000 | > 100000 | 710 nM | 1040 | 2300 nM | 3550 | > 100000 | 1900 |
| NCCCNCCCCNCCCNC(=O)[C@H](N)CCCCNCC1CC2CCC1C2 (stereo partly drawn) [IVB26] | > 100000 | – | > 100000 | > 100000 | 910 nM and 1530 nM | 2400 | 7560 nM and 6070 nM | 1990 | > 100000 | 3410 |
| CCCCCCCNCCCC[C@@H](NCCCCCCC)C(=O)NCCCNCCCCNCCCN [IVF6] | > 100000 | – | > 100000 | 67700 | 1880 nM | 940 | 9500 nM | 8030 | 67900 | 5090 |
| NCCCNCCCCNCCCNC(=O)[C@@H](CCCCNCC1CCCCC1)NCC1CCCCC1 [IVF27] | > 100000 | – | > 100000 | > 100000 | 500 nM | 2180 | 2160 nM | 2340 | > 100000 | 1800 |
